Assay results as given in patent publication US6902726B1, “Reduction of odor gases from waste using plant-derived oils” (The United States of America as represented by the …, priority 2001, dated 2005).
Converted amounts (≈) assume the structure as drawn. Read-outs that look alike come from different tables or passages of the source.

Assays:
stored swine waste [1] = assay: VFA production from swine waste in open jars; type: cell-based
Experimental: A 15-ml waste sample was collected from each flask. The sample was mixed with 15 ml of 0.5 M H2SO4, centrifuged at 2000×g for 20 min at 4° C., and stored at −20° C. until analyzed [Varel, V. H. et al. (1999), J Anim Sci 77:1162-1168]. L-Lactate concentrations were determined with a membrane-immobilized system involving lactate oxidase (Model 27, Yellow Springs Instrument Co., Yellow Springs, Ohio, USA). Short-chain volatile fatty acids (VFAs; acetate, propionate, butyrate, valerate, isobutyrate, isovalerate) and aromatic compounds (cresol, indole, skatole, 4-ethylphenol, phenol) were determined in an aliquot from the original acidified sample. After thawing, the sample was centrifuged at 5° C., 10,000×g for 5 min. A 0.5 ml aliquot of the supernatant was combined with an internal standard, ethyl butyrate (0.25 mM final concentration), the sample was acidified with 0.4 ml of 3 M HC1, 0.8 ml ethyl ether was added, the sample was shaken vigorously for 1 min, and centrifuged at 5° C., 16,000×g for 1 min, and the ether phase was analyzed. […] Aromatic, VFAs, thymol and carvacrol were analyzed with a Hewlett Packard 6890 gas chromatograph equipped with a flame ionization detector and a Hewlett Packard 5973 mass selective detector. […] Data were analyzed as a split-plot in time with the GLM procedure of (SAS). […]

stored cattle waste [2] = assay: fermentation of stored cattle waste in open wide-mouthed jars (VFA, butyrate); type: cell-based; details: for production of short-chain volatile fatty acids: 13.3 mM individually, 56 days, versus combination of the two oils (6.7 mM each); for concentration that suppressed essentially all fermentation activity: cattle waste slurry of feces, urine and water (50:35:15)
Experimental: Waste was collected and processed as in Example 1. The waste slurry was divided into 1-liter aliquots and poured into wide-mouth (10 cm) jars (17 cm tall, 13.5 cm diameter, 1.6-liters). The plant oils (carvacrol, thymol and α-pinene) were added to the slurry without stirring or mixing. Plastic lids provided with the jars were used to cover approximately 90% of the jar opening to prevent moisture loss over the 56-day experimental period. A wide mouth pipette was inserted into the slurry from top to bottom at which time slurry contents were simultaneously withdrawn. Total VFA production and butyrate production were measured as described in Example 1.

fecal coliforms = fecal coliforms in swine waste, open jars; type: cell-based
Experimental: (§1) Swine waste was collected and processed into a slurry as in Example 3. As in Example 2, the slurry was added to wide-mouth (10 cm) jars (17 cm tall, 13.5 cm in diameter, 1.6-liter volume) with the test antimicrobial additives, and plastic lids were placed to cover approximately 90% of the jar opening to prevent moisture loss over the experimental period. The sampling procedure was similar to that described above in Example 3, except no stirring or mixing occurred before the contents were sampled, and treatments were in triplicate.
(§2) Fecal coliforms were enumerated with 3 M Petrifilm Escherichia coli coliform count plates (3 M Microbiology Products, St. Paul, Minn.). Both of the carvacrol treatments reduced (P<0.05) the number of viable anaerobic bacteria in the waste within 2 days when compared to the controls (Table 2). This effect was sustained for 28 days. The initial decrease in the concentrations of anaerobic bacteria from day 0 to 2 in the control is presumably because VFAs increase in this batch system and become lethal to a select population of organisms.

stored swine waste [3] = assay: fermentation of stored swine waste in anoxic flasks (gas, VFA, L-lactate, pH); type: cell-based; details: for methane detected: 13.3 mM, after 20 days; for gas production / production of propionate / production of valerate, isovalerate, isobutyrate and cresol: carvacrol or thymol at 13.3 or 16.75 mM, or combination to equal 16.75 mM; for lactate accumulation: oil added to swine waste; for concentration required to suppress most fermentation activity: swine waste slurry, same ratio (50:35:15)
Experimental: Swine waste was processed similarly to the method described in Example 1. Fecal waste was randomly collected within 15 min of being excreted from animals fed a finishing diet of 85% corn and 11% soybean meal. Swine urine was collected from catheterized animals. Feces, urine, and distilled water in the ratio 50:35:15 were blended (Waring Inc., New Hartford, Conn.) for 1 min. Four replicate samples were obtained from this slurry and analyzed for various parameters and were considered as time 0. The waste slurry was divided into 500 ml aliquots and antimicrobial plant oils were added directly at the desired concentration, with one exception, in which carvacrol was dissolved 1:1 v:v in 95% ethanol, or 2 ml carvacrol/ethanol addition in these 500 ml slurries. The slurry was blended 1 min to provide a homogenous mixing of the antimicrobial oils and poured into 1-liter Erlenmeyer flasks, which were gassed with nitrogen (also after each sampling), sealed with a rubber stopper and left stationary at ambient temperature (25° C.). Treatments were in duplicate, and the contents of the flasks were gently swirled before being sampled at the days indicated in FIGS. 3-5. Gas volume and composition were analyzed in these flasks (anoxic slurry).
Head space gas was measured by displacement of a water-lubricated glass piston in a 50 ml syringe [Miller, T. L. et al. (1974), Appl Environ 27:985-987]. A 20-gauge needle with a Leurlok was inserted through the stopper, and a three-way valve was attached to the needle to allow gas volume to be periodically determined. Methane and hydrogen were analyzed as previously described [Varel, V. H. et al. (2000), Curr Microbiol 40:392-397].
A 15-ml waste sample was collected from each flask. The sample was mixed with 15 ml of 0.5 M H2SO4, centrifuged at 2000×g for 20 min at 4° C., and stored at −20° C. until analyzed [Varel, V. H. et al. (1999), J Anim Sci 77:1162-1168]. L-Lactate concentrations were determined with a membrane-immobilized system involving lactate oxidase (Model 27, Yellow Springs Instrument Co., Yellow Springs, Ohio, USA). Short-chain volatile fatty acids (VFAs; acetate, propionate, butyrate, valerate, isobutyrate, isovalerate) and aromatic compounds (cresol, indole, skatole, 4-ethylphenol, phenol) were determined in an aliquot from the original acidified sample. After thawing, the sample was centrifuged at 5° C., 10,000×g for 5 min. A 0.5 ml aliquot of the supernatant was combined with an internal standard, ethyl butyrate (0.25 mM final concentration), the sample was acidified with 0.4 ml of 3 M HC1, 0.8 ml ethyl ether was added, the sample was shaken vigorously for 1 min, and centrifuged at 5° C., 16,000×g for 1 min, and the ether phase was analyzed. To determine carvacrol and thymol concentrations, an aliquot of the original acidified sample which was not centrifuged, was treated as indicated above and extracted with ether twice. […] Aromatic, VFAs, thymol and carvacrol were analyzed with a Hewlett Packard 6890 gas chromatograph equipped with a flame ionization detector and a Hewlett Packard 5973 mass selective detector. Compounds were separated on a 30 m×0.32 mm diameter (0.5 μm film thickness) Innowax PEG column using the following program parameters: flow rate was 1.9 ml min^−1, initial temperature was 140° C., initial time was 3 min with a temperature ramp of 7.5° C. min^−1, with a final temperature of 230° C. for 4 min. Injector and detector temperatures were 250° C. Data were analyzed as a split-plot in time with the GLM procedure of (SAS).

[4] = recovery of added oil from liquid and solid fractions of swine waste, sealed flasks; type: physicochemical
Experimental: Swine waste was processed similarly to the method described in Example 1. Fecal waste was randomly collected within 15 min of being excreted from animals fed a finishing diet of 85% corn and 11% soybean meal. Swine urine was collected from catheterized animals. Feces, urine, and distilled water in the ratio 50:35:15 were blended (Waring Inc., New Hartford, Conn.) for 1 min. Four replicate samples were obtained from this slurry and analyzed for various parameters and were considered as time 0. […] Gas volume and composition were analyzed in these flasks (anoxic slurry).
A 15-ml waste sample was collected from each flask. The sample was mixed with 15 ml of 0.5 M H2SO4, centrifuged at 2000×g for 20 min at 4° C., and stored at −20° C. until analyzed [Varel, V. H. et al. (1999), J Anim Sci 77:1162-1168]. L-Lactate concentrations were determined with a membrane-immobilized system involving lactate oxidase (Model 27, Yellow Springs Instrument Co., Yellow Springs, Ohio, USA). Short-chain volatile fatty acids (VFAs; acetate, propionate, butyrate, valerate, isobutyrate, isovalerate) and aromatic compounds (cresol, indole, skatole, 4-ethylphenol, phenol) were determined in an aliquot from the original acidified sample. […] Data were analyzed as a split-plot in time with the GLM procedure of (SAS).

[5] = test system: total culturable anaerobic bacteria; assay: total culturable anaerobic bacteria in swine waste, open jars; type: cell-based; details: 13.3 mM and 20 mM; within 2 days versus controls (P<0.05); sustained for 28 days
Experimental: as §1, §2

E. coli O157:H7 = details: cited from earlier work; for concentration that will kill E. coli O157:H7: Kim et al.; for minimum inhibitory concentration: pure culture system, Helander et al.
Salmonella typhimurium = details: pure culture system; Helander et al.; cited from earlier work
stored cattle waste [6] = assay: VFA and L-lactate production from cattle waste in anoxic flasks, eugenol versus thymol; type: cell-based; details: for L-lactate production: cattle waste, eugenol at all concentrations evaluated
Experimental: Waste was collected and processed as in Example 1. The waste slurry was divided into 500-ml aliquots and eugenol or thymol were added directly at the desired concentration. The slurry was blended 1 min to provide a homogeneous mixing of the antimicrobial oils and poured into a 1-liter Erlenmeyer flask, which was sealed with a rubber stopper and left stationary at ambient temperature (25° C.). Treatments were in triplicate, and the contents of the flask were gently swirled before being sampled at the times indicated. Short-chain volatile fatty acids and L-lactate in the flasks were determined as described in Example 1. […] This is a desirable effect in some cases because it rapidly lowers the pH which contributes to inhibiting the overall fermentation of the wastes, and more ammonia nitrogen will be retained in the wastes.

In the case of `Cc1ccc(C(C)C)cc1O` [carvacrol], the “effect of dissolving in ethanol on ability to inhibit VFA production” value (stored swine waste [1]; dissolved in ethanol before addition (P>0.05)) is reported as “no effect”, the “production of VFAs” value (stored swine waste [1]; three concentrations (P<0.01), open jars) is reported as “inhibited the production of VFAs” and the “production of short-chain volatile fatty acids” value (stored cattle waste [2]) is reported as “equally or slightly better”. For the same compound, the “concentration that suppressed essentially all fermentation activity” value (stored cattle waste [2]) was 13.3 mM, the fecal coliforms (fecal coliforms; 13.3 mM, at 14 days) was “none were detected” and the fecal coliforms (fecal coliforms; 13.3 mM, within 2 days (P<0.01)) was “reduced”. The fecal coliforms (fecal coliforms; 20 mM, after 2 days) was “No fecal coliforms were detected”, the methane detected (stored swine waste [3]) was “Trace amounts” and the gas production (stored swine waste [3]) was “essentially stopped most gas production”. For the same compound, the production of propionate (stored swine waste [3]) was “inhibited”, the “production of valerate, isovalerate, isobutyrate and cresol” value (stored swine waste [3]) was “prevented any production” and the lactate accumulation (stored swine waste [3]) was “accumulated”. The “concentration required to suppress most fermentation activity” value (stored swine waste [3]) was 16.75 mM, the “recoveries compared with thymol” value ([4]; sealed flasks) was “similar” and the “number of viable anaerobic bacteria” value [5] was “reduced”. The “concentration that will kill E. coli O157:H7” value (E. coli O157:H7) was 500 µg/mL, the “concentration that will kill E. coli O157:H7” value (E. coli O157:H7; value in brackets) was 3.3 mM and the minimum inhibitory concentration (E. coli O157:H7) was 3000 µM (≈ 451 µg/mL). For the same compound, the minimum inhibitory concentration (Salmonella typhimurium) was 1000 µM (≈ 150 µg/mL).
With `C=CCc1ccc(O)c(OC)c1` [eugenol] the “control of total VFA production compared to 2000 ppm (13.3 mM) thymol” value (stored cattle waste [6]; 2000 or 2500 ppm (13.3 or 16 mM), 42-day period) was “equally or more effective”, the L-lactate production (stored cattle waste [6]) was “stimulates L-lactate production” and the “inhibition of VFA production, dependence” value (stored cattle waste [6]; various concentrations) was “concentration dependent”.
With `Cc1ccc(C(C)C)c(O)c1` [thymol] the L-lactate production (stored cattle waste [6]) was “inhibits production of L-lactate”, the “production of short-chain volatile fatty acids” value (stored cattle waste [2]) was “equally or slightly better” and the “concentration that suppressed essentially all fermentation activity” value (stored cattle waste [2]) was 13.3 mM. For the same compound, the methane detected (stored swine waste [3]) was “Trace amounts”, the gas production (stored swine waste [3]) was “essentially stopped most gas production” and the production of propionate (stored swine waste [3]) was “inhibited”. For the same compound, the “production of valerate, isovalerate, isobutyrate and cresol” value (stored swine waste [3]) was “prevented any production”, the lactate accumulation (stored swine waste [3]) was “accumulated” and the “concentration required to suppress most fermentation activity” value (stored swine waste [3]) was 16.75 mM. For the same compound, the “thymol recovered from the liquid or supernatant fraction” value ([4]; % of added, swine waste) was “less than 25%”, the minimum inhibitory concentration (E. coli O157:H7) was 3000 µM (≈ 451 µg/mL) and the minimum inhibitory concentration (Salmonella typhimurium) was 1000 µM (≈ 150 µg/mL).
